Experiments:
influenza A(H1N1) = test: Influenza A inhibition of viral CPE in MDCK cells; format: cell-based, influenza A virus; details: Table II footnote i; read-out: Others EC50, against influenza A(H1N1)
[1] = tested on: Madin Darby canine kidney (MDCK) cells; test: Cytotoxicity run with the influenza assay; format: cell-based; details: Table II footnote i; read-out: Others IC50, against influenza A(H1N1)
Protocol: Virus strains: A/Texas/36191 (H1N1) (Source: Center for Disease Control and Prevention [CDC]), A/Beijing/2/92 (H3N2) (Source: CDC), B/Panama/45/90 (Source: CDC), A/NWS/33 (H1N1) (Source: American Type Culture Collection [ATCC]). (All but A/NWS/33 are tested in the presence of trypsin). Cell lines: Madin Darby canine kidney (MDCK) cells.

2.2.15 cells = test: Toxicity in 2.2.15 cells, neutral red dye uptake; format: cell-based, human; details: Table II; read-out: HBV IC50
Protocol: Cells of 2.2.15 were grown to confluence in 96-well flat-bottomed tissue culture plates and treated with compounds (in 0.2 mL culture medium/well) as described above. Four concentrations of each compound were assayed, each in triplicate cultures, in 3- to 10-fold steps. Untreated control cultures were maintained on each 96-well plate. On each 96-well plate, wells containing no cells were used to correct for light scattering.

HBV = HBV replication in cultures of 2.2.15 cells, extracellular HBV virion DNA (primary assay); details: read-out: HBV EC50; Table II
Protocol: Both intracellular and extracellular HBV DNA are analyzed in order to (i) allow for verification of compound efficacy and (ii) provide possible data on the target site in the HBV replication pathway for the compound from examination of the pattern of viral replicative forms. The culture medium is changed daily during the treatment period to (i) prevent the buildup of potentially toxic metabolites derived from test compounds and (ii) provide an analysis of HBV virion production during discrete 24-hour intervals which enables a quantitative comparison of any effect on virion production.
The analysis of HBV DNA is performed using blot hybridization techniques (Southern and slot blot) and [^32P]-labeled HBV-specific probes. HBV DNA levels are measured by comparison to known amounts of HBV DNA standards applied to every nitrocellulose membrane (gel or slot blot). An AMBIS beta scanner, which measures the radioactive decay of the hybridized probes directly from the nitrocellulose membranes, is used for the quantitative analysis. Standard curves, generated by multiple analyses, are used to correlate CPM measurements made by the beta scanner with relative levels of target HBV DNA. The levels of HBV virion DNA released into the culture medium are analyzed by a slot blot hybridization procedure.

Raji or Daudi cells = test: Toxicity run with the EBV assay; format: cell-based, human; details: Table II
Description: IC50 (50% inhibitory concentration) is the concentration required to inhibit cell proliferation by 50%

[2] = tested on: human foreskin fibroblast cells; test: Toxicity run with the HCMV assay, human foreskin fibroblast cells; format: cell-based; details: Table II
Method in brief: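 Human foreskin fibroblasts exposed to drug at 37 °C in CO2, either 72 h followed by Coulter Counter counts (triplicate counts, three replicate wells), or seven days followed by dye staining for 1 h and optical density at 550 nm.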

VZV = VZV plaque reduction assay in human foreskin fibroblast cells; format: cell-based, varicella zoster virus; details: Table II
Protocol: Two days prior to use, HFF cells are plated into six-well plates and incubated at 37° C. with 5% CO2 and 90% humidity. On the date of assay, the drug is made up at twice the desired concentration in 2x MEM and then serially diluted 1:5 in 2x MEM using six concentrations of drug. The initial starting concentration is usually 200 gg/mL down to 0.06 μg/mL. The virus to be used is diluted in MEM containing 10% FBS to a desired concentration which will give 20-30 plaques per well. The media is then aspirated from the wells and 0.2 mL of virus is added to each well in duplicate with 0.2 mL of media being added to drug toxicity wells. The plates are then incubated for one hour with shaking every fifteen minutes. After the incubation period, an equal amount of 1% agarose was added to an equal volume of each drug dilution. This will give final drug concentrations beginning with 100 μg/mL and ending with 0.03 μg/mL and a final agarose overlay concentration of 0.5%. The drug agarose mixture is applied to each well in 2 mL volume and the plates then incubated for three days, after which the cells were stained with a 1.5% solution of neutral red. At the end of 4-6hr incubation period, the stain is aspirated, and plaques counted using a stereomicroscope at lOx magnification.
The procedure is essentially the same as for the HSV plaque assay described above with two exceptions:
1. After addition of the drug, the plates are incubated for ten days.
2. On days three and six, an additional 1 mL overlay with equal amounts of 2x MEM and 1% agarose are added.

EBV = EBV assay: superinfection of Raji or Daudi cells with P3HR-1, immunofluorescence for EA and VCA; format: cell-based, Epstein-Barr virus; details: Table II
Description: There are two prototypes of infectious EBV. One is exemplified by the virus derived from supernatant fluids of the P3HR-1cell line. This cell line produces nontransforming virus that causes the production of early antigen (EA) after primary infection or superinfection of B cell lines. The other prototype is exemplified by the B-95-8 virus. This virus immortalized cord blood lymphocytes and induced tumors in marmosets.
The virus used in our assays is P3HR-1.
Ramos is an exceptional B cell line derived from Burkitt's lymphoma tumor but containing no detectable EBV genome copies and is EBNA negative. Ramos/AW was obtained by in vitro infection of Ramos with the P3HR-1 virus and contains one resident EBV genome copy/cell. Raji is a Burkitt's lymphoma cell line containing 60 EBV genomes/cell, and will be the primary cell used for screening antiviral activity against EBV EA expression. Daudi is a low level producer that contains 152 EBV genome copies/cell. It spontaneously expresses EBV EA in 0.25%-0.5% of the cells. It will be used in follow-up studies to confirm activity. These cell lines respond to superinfection by EBV by expressing EA(D), EA(R), and VCA. All cell lines are maintained in RPMI-1640 medium supplemented by 10% FCS, L-glutamine and 100 μg/mL gentamicin. The cultures are fed twice weekly and the cell concentration adjusted to 3×10^5/mL. The cells are kept at 37° C. in a humidified atmosphere with 5% CO2.
Cells are infected with the P3HR-1 strain of EBV and the drugs to be tested are added after adsorption (45 minutes at 37° C.) and washing of the cell cultures. The cultures are incubated for two days in complete medium to allow viral gene expression. Following the 48 hr incubation period, the number of cells of each sample are counted and smears made. Monoclonal antibodies to the different EA components and VCA are then added to the cells incubated and washed. This is followed by a fluorescein conjugated rabbit anti-mouse Ig antibody; and the number of fluorescence positive cells in the smears are counted. The total number of cells in the cultures positive for EA or VCA are then calculated and compared.

[3] = tested on: human foreskin fibroblast cells; test: Toxicity run with the VZV assay, human foreskin fibroblast cells; format: cell-based; details: Table II
Protocol: [table] […] The media from the wells is then aspirated and 2 mL of each drug concentration is then added to each well. The cells are then incubated in a CO2 incubator at 37° C. for 72 h. At the end of this time, the media-drug solution is removed and the cells washed. […] The cell-media mixture is then pipetted up and down vigorously to break up the cell suspension, and 0.2 mL of the mixture is added to 9.8 mL of Isoton III and counted using a Coulter Counter. Each sample is counted three times with three replicate wells per sample. The procedure for plating cells and adding drug is the same as for the MTT Assay. After drug addition, the plates are incubated for seven days in a CO2 incubator at 37° C. […] This is incubated in the CO2 incubator for one hour. The dye is aspirated and the cells are washed using a Nunc Plate Washer. […] The plates are rotated for 15 minutes and the optical densities are read at 550 nm on a plate reader.

HCMV = HCMV semi-automated CPE-inhibition assay in human foreskin fibroblast cells; format: cell-based, human cytomegalovirus; details: Table II
[4] = tested on: Human lung carcinoma (A549) cells; test: Cytotoxicity run with the adenovirus assay; details: read-out: Others IC50, against adenovirus type-1; Table II footnote h
measles = test: Measles virus inhibition of viral CPE in BSC-1 cells; format: cell-based; details: Table II footnote g
[5] = tested on: HCMV isolates Towne, AD169, E. Mann, Coffman, C9208; test: Anti-CMV plaque reduction assay against various laboratory and clinical isolates (Example 40); format: cell-based, human cytomegalovirus
Protocol: On the date of assay, the drug is made up at twice the desired concentration in 2x MEM and then serially diluted 1:5 in 2x MEM using six concentrations of drug. The initial starting concentration is usually 200 gg/mL down to 0.06 μg/mL. […] The media is then aspirated from the wells and 0.2 mL of virus is added to each well in duplicate with 0.2 mL of media being added to drug toxicity wells. The plates are then incubated for one hour with shaking every fifteen minutes. […] This will give final drug concentrations beginning with 100 μg/mL and ending with 0.03 μg/mL and a final agarose overlay concentration of 0.5%. The drug agarose mixture is applied to each well in 2 mL volume and the plates then incubated for three days, after which the cells were stained with a 1.5% solution of neutral red. At the end of 4-6hr incubation period, the stain is aspirated, and plaques counted using a stereomicroscope at lOx magnification. The procedure again is nearly the same as for HSV with a few minor changes. […] The assay is incubated for 14 days with the additional 1 mL overlays being applied on days four and eight. The procedure for the liquid overlay plaque assay is similar to that using the agarose overlay. The procedure for adding the virus is the same as for the regular plaque assay. The drugs are made up in a concentration to be used in MEM with 2% FBS. The drugs are not made up at 2x concentration as in the previous assays but are made up at the desired concentration. For HSV-1 and HSV-2 assays, an antibody preparation obtained from Baxter Health Care Corporation is diluted 1:500 and added to the media that the drug is diluted in. For CMV and VZV, no antibody in the overlay is utilized. For the CMV assay, additional medium without new drug is added on day five and allowed to incubate for a total of 10 days. For VZV, additional medium is added on day five and incubated for a total of 10 days. At the end of the incubation period for all of the assays, 2 mL of 1:10 dilution of stock neutral is added to each well incubated for six hours. The liquid is then aspirated off and plaques enumerated using a stereomicroscope. Five calanolide analogues, prepared as described above, were further evaluated for their anti-HCMV activity in plaque reduction assay against various laboratory and clinical isolates (Towne, AD 169, E. Mann, Coffinan, and […]).

[6] = tested on: human foreskin fibroblast cells; test: Cell viability in the CMV plaque reduction assay (MTC); format: cell-based
Description: Five calanolide analogues, prepared as described above, were further evaluated for their anti-HCMV activity in plaque reduction assay against various laboratory and clinical isolates (Towne, AD 169, E. Mann, Coffinan, and C9208).

`CC1Oc2c3c(c4c(-c5ccccc5)cc(=O)oc4c2C(O)C1C)OC(C)(C)C=C3` (single isomer, unassigned; (-)) [(−)-24] was tested, and the EC50 (influenza A(H1N1)) was 57 µM, the IC50 [1] was > 100 µM and the IC50 (2.2.15 cells) was 151 µM. For the same compound, the EC50 (HBV) was > 10 µM, the “EBV IC50” value (Raji or Daudi cells) was >50 µg/mL and the “HCMV IC50” value [2] was 14.4 µg/mL. The “VZV EC50” value (VZV) was >4.0 µg/mL, the “EBV EC50” value (EBV) was >50 µg/mL and the “VZV IC50” value [3] was 12.0 µg/mL. For the same compound, the “HCMV EC50” value (HCMV) was >4.0 µg/mL.
`CCCc1cc(=O)oc2c3c(c4c(c12)OC(C)(C)CC4)OC(C)C(C)C3O` (single isomer, unassigned; (-)) [(−)-23] was tested, and the IC50 [4] was > 100 µM, the “Others EC50, against measles” value (measles) was 20^g μM and the IC50 (2.2.15 cells) was 340 µM. It also gave an EC50 ([5]; isolate AD169) of 3.16 µM, an EC50 ([5]; isolate C9208) of 2.99 µM and an EC50 ([5]; isolate Coffman) of 3.16 µM. For the same compound, the EC50 ([5]; isolate E. Mann) was 3.16 µM, the EC50 ([5]; isolate Towne) was 3.16 µM and the EC50 (HBV) was 3.5 µM. For the same compound, the “HCMV IC50” value [2] was 18.8 µg/mL, the “VZV EC50” value (VZV) was >4.0 µg/mL and the “VZV IC50” value [3] was 16.0 µg/mL. The “HCMV EC50” value (HCMV) was >4.0 µg/mL, the “MTC (minimum drug concentration that reduced cell viability by 25%)” value ([6]; isolate AD169) was 10 µM and the “MTC (minimum drug concentration that reduced cell viability by 25%)” value ([6]; isolate C9208) was 10 µM. The “MTC (minimum drug concentration that reduced cell viability by 25%)” value ([6]; isolate Coffman) was <100 µM, the “MTC (minimum drug concentration that reduced cell viability by 25%)” value ([6]; isolate E. Mann) was 10 µM and the “MTC (minimum drug concentration that reduced cell viability by 25%)” value ([6]; isolate Towne) was 10 µM.

From patent US20020013478A1, “Calanolide analogues and methods of their use” (Sarawak Medichem Pharmaceuticals,Inc., priority 1994, published 2002)
